Laboratory results reported in the kinase profiling compilation of Christmann-Franck et al. (2016).
“And” between values parts separate entries of the source, which are not always exact repeats. Identical values can stand only once.

Key:
Test in all cases: KINOMEscan competition binding
Settings in all cases: compound 10.0 µM
[1] = target: STK33 (human) (UniProt Q9BYT3)
[2] = tested on: KIT (human), P10721 [V559D]
[3] = target: CDC42BPG (human) (UniProt Q6DT37)
[4] = target: WEE2 (human) (UniProt P0C1S8)
[5] = target: EPHA3 (human) (UniProt P29320)
[6] = target: INSRR (human) (UniProt P14616)
[7] = target: NUAK2 (human) (UniProt Q9H093)
[8] = target: HIPK1 (human) (UniProt Q86Z02)
[9] = target: HIPK2 (human) (UniProt Q9H2X6)
[10] = target: CSF1R (human) (UniProt P07333)
[11] = tested on: EGFR (human), P00533 [L858R]
[12] = target: CHEK2 (human) (UniProt O96017)
[13] = tested on: EGFR (human), P00533 [747-751 del / S ins]
[14] = tested on: EGFR (human), P00533 [A750P; 747-749 del]
[15] = tested on: EGFR (human), P00533 [T790M/L858R]
[16] = tested on: EGFR (human), P00533 [G719C]
[17] = tested on: EGFR (human), P00533 [P753S; 747-752 del]
[18] = tested on: EGFR (human), P00533 [L861Q]
[19] = tested on: EGFR (human), P00533 [G719S]
[20] = tested on: EGFR (human), P00533 [746-750 del]
[21] = target: RPS6KA3 KD1 (human) (UniProt P51812)
[22] = target: EGFR (human) (UniProt P00533)
[23] = tested on: EGFR (human), P00533 [752-759 del]
[24] = target: TAOK1 (human) (UniProt Q7L7X3)

EPHA3 (human), sequence (P29320 whole entry, looked up): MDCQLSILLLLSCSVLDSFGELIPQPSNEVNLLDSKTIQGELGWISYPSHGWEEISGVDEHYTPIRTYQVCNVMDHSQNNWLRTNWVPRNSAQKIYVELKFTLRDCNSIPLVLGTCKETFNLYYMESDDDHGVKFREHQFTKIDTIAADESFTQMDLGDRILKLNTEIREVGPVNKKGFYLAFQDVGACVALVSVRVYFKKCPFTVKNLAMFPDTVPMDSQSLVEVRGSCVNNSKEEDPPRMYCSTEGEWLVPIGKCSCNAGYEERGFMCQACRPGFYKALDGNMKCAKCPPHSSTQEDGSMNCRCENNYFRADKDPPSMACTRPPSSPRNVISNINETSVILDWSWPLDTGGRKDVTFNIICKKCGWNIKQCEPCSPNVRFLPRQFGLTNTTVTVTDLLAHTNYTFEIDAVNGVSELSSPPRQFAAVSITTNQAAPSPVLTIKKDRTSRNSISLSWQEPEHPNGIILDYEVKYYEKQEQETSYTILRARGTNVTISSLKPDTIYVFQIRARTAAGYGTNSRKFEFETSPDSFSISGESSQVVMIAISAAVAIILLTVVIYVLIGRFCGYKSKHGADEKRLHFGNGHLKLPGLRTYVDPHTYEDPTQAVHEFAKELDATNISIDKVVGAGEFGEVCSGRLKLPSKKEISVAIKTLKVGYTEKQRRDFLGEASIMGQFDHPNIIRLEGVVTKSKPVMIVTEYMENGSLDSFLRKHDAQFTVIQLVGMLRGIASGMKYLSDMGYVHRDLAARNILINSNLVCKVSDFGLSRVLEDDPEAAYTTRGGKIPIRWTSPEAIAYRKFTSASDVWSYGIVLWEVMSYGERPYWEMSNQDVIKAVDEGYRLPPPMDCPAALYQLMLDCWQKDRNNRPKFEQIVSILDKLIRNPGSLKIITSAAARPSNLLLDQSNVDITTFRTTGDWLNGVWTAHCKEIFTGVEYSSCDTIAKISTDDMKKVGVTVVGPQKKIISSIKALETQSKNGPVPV
INSRR (human), sequence (P14616 whole entry, looked up): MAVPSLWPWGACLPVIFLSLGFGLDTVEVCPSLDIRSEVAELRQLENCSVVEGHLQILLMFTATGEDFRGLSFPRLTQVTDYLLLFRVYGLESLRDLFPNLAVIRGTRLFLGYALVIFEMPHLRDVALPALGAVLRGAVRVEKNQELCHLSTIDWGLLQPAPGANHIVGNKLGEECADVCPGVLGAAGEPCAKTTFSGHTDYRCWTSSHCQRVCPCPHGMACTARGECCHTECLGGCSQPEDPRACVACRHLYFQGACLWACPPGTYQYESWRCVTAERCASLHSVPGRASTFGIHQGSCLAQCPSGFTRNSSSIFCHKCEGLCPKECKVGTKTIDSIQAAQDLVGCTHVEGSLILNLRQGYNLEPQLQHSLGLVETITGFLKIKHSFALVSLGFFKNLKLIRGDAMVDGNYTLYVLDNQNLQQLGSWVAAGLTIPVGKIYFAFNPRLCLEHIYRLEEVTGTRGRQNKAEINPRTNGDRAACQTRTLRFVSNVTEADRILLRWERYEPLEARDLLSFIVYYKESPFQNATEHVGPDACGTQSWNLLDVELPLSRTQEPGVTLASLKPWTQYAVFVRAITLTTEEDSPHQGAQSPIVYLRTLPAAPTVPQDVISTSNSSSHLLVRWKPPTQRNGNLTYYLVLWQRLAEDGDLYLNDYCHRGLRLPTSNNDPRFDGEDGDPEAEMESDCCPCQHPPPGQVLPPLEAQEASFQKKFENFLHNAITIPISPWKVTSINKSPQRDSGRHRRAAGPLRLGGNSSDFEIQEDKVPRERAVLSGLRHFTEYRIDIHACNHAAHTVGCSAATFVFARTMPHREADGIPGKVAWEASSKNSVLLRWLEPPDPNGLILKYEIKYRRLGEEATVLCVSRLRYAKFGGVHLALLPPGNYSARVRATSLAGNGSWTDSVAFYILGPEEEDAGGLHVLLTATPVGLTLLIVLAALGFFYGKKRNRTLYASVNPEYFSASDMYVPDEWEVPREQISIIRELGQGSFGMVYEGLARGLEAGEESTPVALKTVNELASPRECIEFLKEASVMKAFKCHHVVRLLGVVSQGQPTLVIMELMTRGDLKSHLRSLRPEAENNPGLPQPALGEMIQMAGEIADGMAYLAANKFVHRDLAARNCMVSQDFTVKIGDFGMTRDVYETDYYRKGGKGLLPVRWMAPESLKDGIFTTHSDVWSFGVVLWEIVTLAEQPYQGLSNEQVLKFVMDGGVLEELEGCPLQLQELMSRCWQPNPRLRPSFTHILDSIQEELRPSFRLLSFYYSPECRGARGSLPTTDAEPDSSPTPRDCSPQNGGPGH
WEE2 (human), sequence (P0C1S8 whole entry, looked up): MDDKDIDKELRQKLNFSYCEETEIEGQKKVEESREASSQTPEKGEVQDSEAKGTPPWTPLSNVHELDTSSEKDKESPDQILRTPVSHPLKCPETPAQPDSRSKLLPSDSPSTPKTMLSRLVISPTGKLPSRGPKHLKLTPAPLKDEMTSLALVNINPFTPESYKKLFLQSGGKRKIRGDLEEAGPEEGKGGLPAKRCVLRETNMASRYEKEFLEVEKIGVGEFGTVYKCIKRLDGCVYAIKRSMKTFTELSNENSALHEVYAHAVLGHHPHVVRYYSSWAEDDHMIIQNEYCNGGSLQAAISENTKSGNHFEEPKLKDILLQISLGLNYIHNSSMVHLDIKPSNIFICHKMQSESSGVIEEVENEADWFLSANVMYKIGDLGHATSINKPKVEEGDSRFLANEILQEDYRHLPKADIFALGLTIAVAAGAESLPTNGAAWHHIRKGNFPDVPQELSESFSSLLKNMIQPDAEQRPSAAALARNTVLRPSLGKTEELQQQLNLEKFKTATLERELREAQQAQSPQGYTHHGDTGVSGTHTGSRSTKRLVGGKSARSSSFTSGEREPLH
HIPK1 (human), sequence (Q86Z02 whole entry, looked up): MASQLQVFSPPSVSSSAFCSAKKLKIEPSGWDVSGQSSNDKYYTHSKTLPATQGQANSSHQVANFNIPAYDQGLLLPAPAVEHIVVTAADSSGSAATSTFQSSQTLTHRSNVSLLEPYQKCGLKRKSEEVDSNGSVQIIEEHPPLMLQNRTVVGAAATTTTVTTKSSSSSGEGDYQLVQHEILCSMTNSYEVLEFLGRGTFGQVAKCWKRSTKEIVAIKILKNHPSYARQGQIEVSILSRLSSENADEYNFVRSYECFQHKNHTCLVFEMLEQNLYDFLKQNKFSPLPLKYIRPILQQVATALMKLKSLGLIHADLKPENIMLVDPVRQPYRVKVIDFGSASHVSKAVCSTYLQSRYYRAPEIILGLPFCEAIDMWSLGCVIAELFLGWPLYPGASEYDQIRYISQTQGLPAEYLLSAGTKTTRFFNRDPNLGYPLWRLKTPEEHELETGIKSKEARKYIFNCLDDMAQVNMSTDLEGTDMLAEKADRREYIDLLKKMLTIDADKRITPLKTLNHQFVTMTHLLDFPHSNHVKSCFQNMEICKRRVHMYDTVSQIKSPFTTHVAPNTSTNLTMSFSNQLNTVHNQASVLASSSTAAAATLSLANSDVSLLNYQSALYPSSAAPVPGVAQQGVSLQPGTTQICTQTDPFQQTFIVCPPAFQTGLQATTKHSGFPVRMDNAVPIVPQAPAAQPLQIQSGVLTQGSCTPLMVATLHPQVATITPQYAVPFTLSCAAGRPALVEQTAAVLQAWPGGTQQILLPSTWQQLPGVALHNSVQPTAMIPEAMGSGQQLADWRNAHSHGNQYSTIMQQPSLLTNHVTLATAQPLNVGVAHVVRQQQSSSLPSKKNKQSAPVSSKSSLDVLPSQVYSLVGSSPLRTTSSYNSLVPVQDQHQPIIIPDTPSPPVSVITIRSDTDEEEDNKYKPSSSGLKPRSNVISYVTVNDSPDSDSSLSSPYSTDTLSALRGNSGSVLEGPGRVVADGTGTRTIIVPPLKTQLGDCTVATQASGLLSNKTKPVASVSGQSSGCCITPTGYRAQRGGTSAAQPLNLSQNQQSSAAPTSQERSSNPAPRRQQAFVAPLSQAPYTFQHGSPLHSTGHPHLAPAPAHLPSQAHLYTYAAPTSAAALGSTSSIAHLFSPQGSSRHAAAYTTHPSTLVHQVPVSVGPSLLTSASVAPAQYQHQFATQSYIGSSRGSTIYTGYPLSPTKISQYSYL
STK33 (human), sequence (Q9BYT3 whole entry, looked up): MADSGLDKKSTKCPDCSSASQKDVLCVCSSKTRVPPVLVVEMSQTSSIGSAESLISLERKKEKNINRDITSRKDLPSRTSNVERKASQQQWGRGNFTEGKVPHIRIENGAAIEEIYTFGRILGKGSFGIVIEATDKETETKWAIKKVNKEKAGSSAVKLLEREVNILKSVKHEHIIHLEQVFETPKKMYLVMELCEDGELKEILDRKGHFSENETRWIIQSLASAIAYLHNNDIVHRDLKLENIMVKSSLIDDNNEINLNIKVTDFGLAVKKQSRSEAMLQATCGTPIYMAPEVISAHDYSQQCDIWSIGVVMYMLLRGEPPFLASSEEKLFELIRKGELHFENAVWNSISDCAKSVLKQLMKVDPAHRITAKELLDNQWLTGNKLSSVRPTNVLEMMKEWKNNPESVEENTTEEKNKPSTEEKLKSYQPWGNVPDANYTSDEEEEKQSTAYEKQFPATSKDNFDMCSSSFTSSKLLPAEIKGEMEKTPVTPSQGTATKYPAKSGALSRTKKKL

kinase still bound, per cent of control [1]	kinase still bound, per cent of control [2]	kinase still bound, per cent of control [3]	kinase still bound, per cent of control [4]	kinase still bound, per cent of control [5]	kinase still bound, per cent of control [6]	kinase still bound, per cent of control [7]	kinase still bound, per cent of control [8]	kinase still bound, per cent of control [9]	kinase still bound, per cent of control [10]	kinase still bound, per cent of control [11]	kinase still bound, per cent of control [12]	kinase still bound, per cent of control [13]	kinase still bound, per cent of control [14]	kinase still bound, per cent of control [15]	kinase still bound, per cent of control [16]	kinase still bound, per cent of control [17]	kinase still bound, per cent of control [18]	kinase still bound, per cent of control [19]	kinase still bound, per cent of control [20]	Compound	also measured
100%	100%	100%	100%	100%	100%	94%	87%	100%	90%	–	–	–	–	–	–	–	–	–	–	Cc1cnc(-c2cnc(NCCNc3ccc(C#N)cn3)nc2-c2ccc(Cl)cc2Cl)[nH]1	–
11%	0%	80%	100%	1.7%	47%	39%	7.6%	7.4%	1.2%	32%	38%	24%	17%	53%	39%	38%	34%	35%	13%	O=C1Nc2cc(Br)ccc2/C1=C1/Nc2ccccc2/C1=N\O	kinase still bound, per cent of control [21]: 80%; kinase still bound, per cent of control [22]: 44%; kinase still bound, per cent of control [23]: 29%
75%	3.6%	100%	100%	100%	93%	93%	58%	90%	97%	–	–	–	–	–	–	–	–	–	–	COc1ccc(CNC(=O)Nc2ncc([N+](=O)[O-])s2)cc1	kinase still bound, per cent of control [24]: 85% and 100%
100%	87%	100%	100%	76%	72%	100%	5%	15%	87%	100%	90%	91%	85%	97%	100%	99%	83%	99%	77%	Cn1cc(C2=C(c3ccc(Cl)cc3Cl)C(=O)NC2=O)c2ccccc21	kinase still bound, per cent of control [24]: 90% and 98%; kinase still bound, per cent of control [21]: 100%; kinase still bound, per cent of control [22]: 100%; kinase still bound, per cent of control [23]: 94%
